Test results taken from PubChem BioAssay (NCI).
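Cultured in 96-well plates, cells were exposed to test compound for 48 hours across five concentrations. TGI: concentration producing complete growth inhibition.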

Tests used:
Assay in all cases: inhibition of tumour cell growth, NCI panel, 48 h
[1] = test system: BT-549 breast
[2] = test system: IGROV1 ovarian
[3] = test system: NCI-H226 lung
[4] = test system: PC-3 prostate
[5] = test system: OVCAR-5 ovarian
[6] = test system: NCI-H460 lung
[7] = test system: LOX IMVI melanoma
[8] = test system: RXF 393 renal
[9] = test system: MDA-N
[10] = test system: COLO 205 colon
[11] = test system: MDA-MB-435
[12] = test system: KM12 colon
[13] = test system: SK-MEL-28 melanoma
[14] = test system: HOP-62 NSCLC
[15] = test system: HS 578T breast
[16] = test system: SK-MEL-2 melanoma

Measured: TGI

CC(C)(C)c1cc2c(OC/C=C/c3ccccc3)c(c1)Cc1cc(C(C#N)(OC/C=C/c3ccccc3)OC/C=C/c3ccccc3)cc(c1OC/C=C\c1ccccc1)Cc1cc(C(C)(C)C)cc(c1OC/C=C/c1ccccc1)Cc1cc(C(C#N)(OC/C=C\c3ccccc3)OC/C=C/c3ccccc3)cc(c1OC/C=C\c1ccccc1)C2 (stereo unspecified)
> 100 µM: [1] | [2] | [3] | [4] | [5] | [6] | [7] | [8] | [9] | [10] | [11] | [12] | [13] | [14] | [15] | [16]
